According to publication PMC11992225, “Antibacterial compounds against non-growing and intracellular bacteria” (npj Antimicrobials and Resistance, 2025):
In brackets after ≈: the same amount, converted by molar mass. Several values for one entry are separate records, joined by “and”; a condition that tells them apart may be missing. Equal entries are not always repeated. Where two headings read alike, the source gives them in different places.

Assays:
[1] = tested on: non-growing UPEC CFT073; assay: Dilution-regrowth assay (screen, hit validation, dose-response) on stationary-phase UPEC; assay type: cell-based, Escherichia coli; conditions: E. coli, regrowth delay of non-growing bacteria, 24 h treatment, OD600 6 h after 2500-fold dilution, read-out: EC50
In short: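 Regrowth (OD600 after 6 h, 37 °C) of diluted non-growing CFT073, following 24 h compound treatment of 24 h stationary cultures, defines activity relative to untreated control. Screen at 20 µM, validation at 20, 10, 5 µM (duplicates), dose–response in three biological replicates fitted by five-parameter logistic.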

[2] = tested on: non-growing S. aureus DSM2569; assay: Dose-dependent killing analysis (CFU spot-plating) of stationary-phase S. aureus; assay type: cell-based, Staphylococcus aureus; conditions: for killing, average Δlog10(CFU/ml) / log10(CFU/ml) of treated nongrowing bacteria (single replicates): S. aureus; for log10(CFU/ml) of treated nongrowing bacteria (single replicates): before treatment 9,097
In short: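 Survival was scored as CFU after overnight growth at 37 °C on LB agar, using spots from 10-fold PBS dilutions of treated cultures. Non-growing S. aureus DSM2569 had been exposed to compound for 24 h in 1:4 CA-MHB, pH 7.4. Three biological replicates were run.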

[3] = tested on: non-growing P. aeruginosa DSM1117; assay: Dose-dependent killing analysis (CFU spot-plating) of stationary-phase P. aeruginosa; assay type: cell-based, Pseudomonas aeruginosa; conditions: for killing, average Δlog10(CFU/ml) / log10(CFU/ml) of treated nongrowing bacteria (single replicates): P. aeruginosa; for log10(CFU/ml) of treated nongrowing bacteria (single replicates): before treatment 8.887
In short: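 Viability by CFU: samples serially diluted 10-fold in PBS, spotted on LB agar, grown overnight at 37 °C, and colonies counted at the lowest resolvable dilution. Non-growing P. aeruginosa DSM1117 had been dosed for 24 h in 1:4 CA-MHB (pH 7.4); three biological replicates.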

[4] = tested on: S. aureus DSM2569; assay: MIC, standard microdilution assay, growing S. aureus; assay type: cell-based, Staphylococcus aureus; conditions: S. aureus; CA-MHB pH 7.4; read-out: MIC (μM) CA-MHB
In short: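 MICs come from microdilution in CA-MHB/40 mM HEPES pH 7.4 for the UPEC, Pseudomonas and Staphylococcus strains, and in TSB for Shigella. UPEC also tested in LPM/30 mM MES pH 5.5.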

[5] = tested on: non-growing UPEC CFT073; assay: Dose-dependent killing analysis (CFU spot-plating) of stationary-phase UPEC; assay type: cell-based, Escherichia coli
In short: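 Killing assessed by CFU counts: overnight 37 °C LB agar spot plates (10 μl drops of 10-fold PBS dilutions) scored at the lowest dilution with distinct colonies. Samples were compound-treated non-growing UPEC CFT073, 200 μl per well. Performed as three biological replicates.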

## N[C@@H]1CN(c2c(F)cc3c(=O)c(C(=O)O)cn([C@@H]4C[C@@H]4F)c3c2Cl)CC12CC2 [Sitafloxacin]
[1]; LPM pH 5.5
  EC50: 10.8 µM
[1]; pH 7.4, 1:4 CA-MHB
  EC50: 0.187 µM
[2]; 10 to 0.1 μM, 24 h treatment
  killing of non-growing S. aureus (reduction of bacterial counts): the most activity
[2]; drug concentration 0.1
  killing, average Δlog10(CFU/ml): 0.348 log10(CFU/ml)
  log10(CFU/ml) of treated nongrowing bacteria (single replicates): 8.602 log10(CFU/ml) and 8.881 log10(CFU/ml) and 8.763 log10(CFU/ml)
[2]; drug concentration 0.5
  killing, average Δlog10(CFU/ml): 1.504 log10(CFU/ml)
  log10(CFU/ml) of treated nongrowing bacteria (single replicates): 7.223 log10(CFU/ml) and 7.833 log10(CFU/ml) and 7.724 log10(CFU/ml)
[2]; drug concentration 2.5
  killing, average Δlog10(CFU/ml): 2.447 log10(CFU/ml)
  log10(CFU/ml) of treated nongrowing bacteria (single replicates): 6.820 log10(CFU/ml) and 6.716 log10(CFU/ml) and 6.413 log10(CFU/ml)
[2]; drug concentration 10
  killing, average Δlog10(CFU/ml): 2.500 log10(CFU/ml)
  log10(CFU/ml) of treated nongrowing bacteria (single replicates): 6.908 log10(CFU/ml) and 6.613 log10(CFU/ml) and 6.270 log10(CFU/ml)
[3]; drug concentration 0.1
  killing, average Δlog10(CFU/ml): 1.534 log10(CFU/ml)
  log10(CFU/ml) of treated nongrowing bacteria (single replicates): 7.699 log10(CFU/ml) and 7.362 log10(CFU/ml) and 7.000 log10(CFU/ml)
[3]; drug concentration 0.5
  killing, average Δlog10(CFU/ml): 3.935 log10(CFU/ml)
  log10(CFU/ml) of treated nongrowing bacteria (single replicates): 5.954 log10(CFU/ml) and 4.903 log10(CFU/ml) and =<4 log10(CFU/ml)
[3]; drug concentration 2.5
  killing, average Δlog10(CFU/ml): 4.787 log10(CFU/ml)
  log10(CFU/ml) of treated nongrowing bacteria (single replicates): =<4 log10(CFU/ml) (2×) and 4.301 log10(CFU/ml)
[3]; drug concentration 10
  killing, average Δlog10(CFU/ml): 4.353 log10(CFU/ml)
  log10(CFU/ml) of treated nongrowing bacteria (single replicates): 5.000 log10(CFU/ml) and 4.602 log10(CFU/ml) and =<4 log10(CFU/ml)
[3]; at 0.5 µM, 24 h treatment
  reduction of bacterial counts, stationary phase P. aeruginosa: more than four
[3]; at 2.5 µM, 1:4 CA-MHB pH 7.4, 24 h treatment
  reduction of bacterial counts, non-growing P. aeruginosa: more than four
[4]
  MIC: 0.125 µM (≈ 0.0512 µg/mL)
[5]; 24 h treatment of stationary phase culture
  bactericidal activity against non-growing UPEC (CFU counting): most potent and bactericidal
[5]; E. coli in 1:4 CA-MHB (pH 7.4), drug concentration 0.25
  killing, average Δlog10(CFU/ml): 1.161 log10(CFU/ml)
[5]; E. coli in 1:4 CA-MHB (pH 7.4), drug concentration 0.25, before treatment 8.977
  log10(CFU/ml) of treated nongrowing bacteria (single replicates): 8.415 log10(CFU/ml) and 7.602 log10(CFU/ml) and 7.431 log10(CFU/ml)
[5]; E. coli in 1:4 CA-MHB (pH 7.4), drug concentration 0.5
  killing, average Δlog10(CFU/ml): 2.277 log10(CFU/ml)
[5]; E. coli in 1:4 CA-MHB (pH 7.4), drug concentration 0.5, before treatment 8.977
  log10(CFU/ml) of treated nongrowing bacteria (single replicates): 7.255 log10(CFU/ml) and 6.699 log10(CFU/ml) and 6.146 log10(CFU/ml)
[5]; E. coli in 1:4 CA-MHB (pH 7.4), drug concentration 1
  killing, average Δlog10(CFU/ml): 3.175 log10(CFU/ml)
[5]; E. coli in 1:4 CA-MHB (pH 7.4), drug concentration 1, before treatment 8.977
  log10(CFU/ml) of treated nongrowing bacteria (single replicates): 6.204 log10(CFU/ml) and 5.903 log10(CFU/ml) and 5.301 log10(CFU/ml)
[5]; E. coli in 1:4 CA-MHB (pH 7.4), drug concentration 2.5
  killing, average Δlog10(CFU/ml): 4.145 log10(CFU/ml)
[5]; E. coli in 1:4 CA-MHB (pH 7.4), drug concentration 2.5, before treatment 8.977
  log10(CFU/ml) of treated nongrowing bacteria (single replicates): 5.176 log10(CFU/ml) and 4.477 log10(CFU/ml) and 4.845 log10(CFU/ml)
[5]; E. coli in 1:4 CA-MHB (pH 7.4), drug concentration 5
  killing, average Δlog10(CFU/ml): 4.067 log10(CFU/ml)
[5]; E. coli in 1:4 CA-MHB (pH 7.4), drug concentration 5, before treatment 8.977
  log10(CFU/ml) of treated nongrowing bacteria (single replicates): 5.255 log10(CFU/ml) and 4.699 log10(CFU/ml) and 4.778 log10(CFU/ml)
[5]; E. coli in 1:4 CA-MHB (pH 7.4), drug concentration 10
  killing, average Δlog10(CFU/ml): 4.500 log10(CFU/ml)
[5]; E. coli in 1:4 CA-MHB (pH 7.4), drug concentration 10, before treatment 8.977
  log10(CFU/ml) of treated nongrowing bacteria (single replicates): 4.954 log10(CFU/ml) and =<4 log10(CFU/ml) and 4.477 log10(CFU/ml)
[5]; E. coli in LPM (pH 5.5), drug concentration 0.25
  killing, average Δlog10(CFU/ml): -0.135 log10(CFU/ml)
[5]; E. coli in LPM (pH 5.5), drug concentration 0.25, before treatment 7.350
  log10(CFU/ml) of treated nongrowing bacteria (single replicates): 7.000 log10(CFU/ml) and 7.176 log10(CFU/ml) and 8.279 log10(CFU/ml)
[5]; E. coli in LPM (pH 5.5), drug concentration 0.5
  killing, average Δlog10(CFU/ml): 0.023 log10(CFU/ml)
[5]; E. coli in LPM (pH 5.5), drug concentration 0.5, before treatment 7.350
  log10(CFU/ml) of treated nongrowing bacteria (single replicates): 6.778 log10(CFU/ml) and 7.000 log10(CFU/ml) and 8.204 log10(CFU/ml)
[5]; E. coli in LPM (pH 5.5), drug concentration 1
  killing, average Δlog10(CFU/ml): -0.037 log10(CFU/ml)
[5]; E. coli in LPM (pH 5.5), drug concentration 1, before treatment 7.350
  log10(CFU/ml) of treated nongrowing bacteria (single replicates): 7.146 log10(CFU/ml) and 7.114 log10(CFU/ml) and 7.903 log10(CFU/ml)
[5]; E. coli in LPM (pH 5.5), drug concentration 2.5
  killing, average Δlog10(CFU/ml): 0.324 log10(CFU/ml)
[5]; E. coli in LPM (pH 5.5), drug concentration 2.5, before treatment 7.350
  log10(CFU/ml) of treated nongrowing bacteria (single replicates): 7.000 log10(CFU/ml) (2×) and 7.079 log10(CFU/ml)
[5]; E. coli in LPM (pH 5.5), drug concentration 5
  killing, average Δlog10(CFU/ml): 1.016 log10(CFU/ml)
[5]; E. coli in LPM (pH 5.5), drug concentration 5, before treatment 7.350
  log10(CFU/ml) of treated nongrowing bacteria (single replicates): 6.301 log10(CFU/ml) and 6.954 log10(CFU/ml) and 5.748 log10(CFU/ml)
[5]; E. coli in LPM (pH 5.5), drug concentration 10
  killing, average Δlog10(CFU/ml): 1.383 log10(CFU/ml)
[5]; E. coli in LPM (pH 5.5), drug concentration 10, before treatment 7.350
  log10(CFU/ml) of treated nongrowing bacteria (single replicates): 6.279 log10(CFU/ml) and 6.544 log10(CFU/ml) and 5.079 log10(CFU/ml)
